From PMC12980303, “Development of a novel risk score reflecting the relative harm potential of synthetic cannabinoids based on prevalence estimates, well‐documented intoxication cases and basic pharmacological data” (Addiction (Abingdon, England), 2025)
Like-named read-outs stand apart in the source and are kept apart here. Marks after values point to notes of the source that are not given here.

Tests used:
[1] = LC–MS/MS analysis of serum and urine samples of intoxication cases; format: in vivo, human; settings: patient serum
Experimental: (§1) The data on intoxication cases used for the development of this risk score were obtained from a prospective study. This study included patients who were treated in an emergency department room following the consumption of an NPS. Clinical symptoms and follow‐up information were documented using a structured questionnaire completed by the attending physicians. The methodology has been previously published. Residual serum (obtained from venous blood) and urine samples, accompanied by the completed questionnaires, were sent to the Poisons Information Center Freiburg for further analysis. The toxicological analyses of serum and urine samples were conducted at the Institute of Forensic Medicine Freiburg. No data was available on previous consumption patterns or potential development of tolerance after continued misuse. The study was conducted in accordance with the Declaration of Helsinki and approved by the regional ethics committee of the University of Freiburg (no. 235/13_130683). The intoxication cases included in this study are those in which SCRA use was confirmed by liquid chromatography tandem mass spectrometry (LC–MS/MS).
Serum/blood and urine analyses were conducted at the Institute of Forensic Medicine Freiburg using previously published LC–MS/MS methods, that were modified by adding further analytes present in ‘legal‐high’ products (‘herbal blends’, ‘C‐liquids’ or ‘research chemicals’), and covered approximately 100 different SCRAs. Detailed information can be found in the Supporting Information.
Urine samples were analysed according to previously published and validated method by Franz et al.^2. For sample preparation 0.5 mL of phosphate buffer (pH 6) and 30 μL of β-glucuronidase were added to 0.5 mL of urine. Incubation was for 60 min at 45°C. This was followed by protein precipitation using 1.5 mL acetonitrile containing the internal standard (c = 2 ng/mL) and 0.56 mL 10 M ammonium formate solution, followed by shaking and centrifugation. 1 mL of the organic phase was transferred into an autosampler vial and evaporated to dryness under N2. The samples were reconstituted in 200 μL mobile phase.
Urine sample analysis was performed on a Dionex UltiMate® 3000RS UHPLC (Thermo Scientific, Dreieich, Germany) coupled to an API 5000^TM triple quadrupole instrument with a TurboIonSpray® interface (Sciex, Darmstadt, Germany). Separation was performed on a Luna C18 100 Å (150 x 2 mm, 5 μm) column with the mobile phase consisting of 0.2% HCOOH and 2 mmol/L NH^4+HCOO^− in water (A) and acetonitrile (B).

hCB1 receptor [2] = target: T1, hCB1 receptor (Homo sapiens, UniProt P21554); experiment: competitive [3H]CP‐55940 radioligand binding assay (hCB1 receptor affinity); settings: Ki [nM] (95% CI), [3H]CP‐55940 competition, hCB1 membrane preparations (HEK293‐EBNA), Cheng–Prusoff; 95% CI in brackets
Experimental: (§2) Receptor assays were performed on three different days and each concentration was tested in duplicate.
From the IC50, the respective Ki values were calculated using the Cheng–Prusoff equation [39].

hCB1 receptor [3] = target: T1, hCB1 receptor; experiment: functional [35S]GTPγS hCB1 activation assay; format: biochemical
Experimental: as §2

[4] = risk score from prevalence in routine forensic samples and intoxication cases (G1, PSS, TSS); design: species or system human
From the text: Therefore, higher values indicate substances with a higher risk. […] To take into account the severity of symptoms and the contribution of the specific NPS, two further summands were introduced. The first is based on the PSS, the second on the TSS. Again, higher values were associated with more severe symptoms and a stronger role of the NPS in causing the symptoms.
The risk score is composed of three components (parts G1, G2 and G3) and was designed as follows: (1) Gx=G1x+G2x+G3x,
Equation 2 takes into consideration several components: the number of intoxications with SCRA x in quarter k over the total number of intoxications of all investigated SCRAs in the same quarter; the number of serum/blood samples positive for SCRA x over the total number of serum/blood samples positive for all SCRAs plus the number of urine samples positive for SCRA x over the total number of urine samples positive for all SCRAs (this is divided by two to account for the two different sample types); and the number of quarters in which the SCRA x was prevalent. (2) G1x=∑k=1gak/bk/ck/dk+ek/fk/2/h+i
Consequently, equation 2 was mathematically rearranged. To further simplify the equation and reduce the formula signs, in equation 3 the following simplifications were taken: a/b=ai , c/d=as and e/f=au .
The sum of these quotients was divided by the number of all prevalent quarters (q p ). Prevalent quarters were defined as quarters in which on average the substance was detected in more than 5% of the positive serum and urine samples. If a poisoning occurred in a quarter in which the substance was not prevalent, the number of these quarters was added (q i ). This part of the score has similarities with an OR [42]. If the proportion of routine samples in a given quarter in which an intoxication with the respective substance occurred was zero (a s + a u = 0), a value of 0.01 was used for that quarter in the calculation of the quotient to avoid division by zero.
For part G2, the severity of the intoxication caused by the respective SCRA x was assessed on the basis of reported symptoms and follow‐up information using the PSS [20]. The PSS classifies the intoxication severity into five levels: (0) no, (1) mild, (2) moderate, (3) severe, and (4) fatal intoxication. […] For this purpose, the mean value of the PSS of all intoxications with the respective SCRA x was calculated ( G2x) .
For part G3, the involvement of the SCRA in the respective intoxications was assessed. This was evaluated on the basis of the TSS [21]. Elliott et al. developed the TSS to assess and classify the contribution of NPS in fatalities. In the present study, the TSS was determined to weigh the involvement of the investigated SCRA in the intoxication and the contribution of the SCRA to the observed symptoms. To determine the TSS value, factors such as the determined concentration of the SCRA, the presence of other recreational drugs or medicinal drugs, the general health of the patient and the consumption circumstances need to be considered. […] In cases with more than one drug detected, a TSS of 3 was only assigned where other compounds were present at concentrations below the range in which relevant effects are to be expected.
For the risk score, the mean value of the TSS of all intoxications with substance x was calculated ( G3x) . Analogous to the value of G2x , the value of G3x can theoretically be between 1 and 3. With a value of ‘1’, substance x was not mainly responsible for the symptoms in all of the intoxications (low level of significance), and with a value of ‘3’, it was the main cause in every poisoning in which it was detected.

[5] = occurrence of SCRAs in intoxication samples of the prospective study; design: species or system human; settings: 2013 to 2021
From the text: For this study, the 10 SCRAs (AB‐[…], ADB‐[…], AB‐FUBINACA, FUB‐AMB, Cumyl‐PEGACLONE, MDMB‐4en‐PINACA, MDMB‐CHMICA, 5F‐MDMB‐PICA, 5F‐ADB and 5F‐PB‐22) which were most frequently detected in intoxications in a prospective observational study during the time period of 2013 to 2021 were selected (see Table 1). Additionally, JWH‐210, a model compound representative of the early SCRAs, along with two substances prevalent in screenings during years 2019/2020 (5F‐Cumyl‐PEGACLONE and 4F‐MDMB‐BICA), were included in this study (see Tables S2–S7). […] JWH‐018 was also included as a reference compound because of its historical use in this capacity. Including both reference compounds facilitates direct comparison with previously published data, thereby enhancing the relevance and interpretability of the results obtained in the present study. Information on the origin of the test and reference compounds and all chemicals used in this study can be found in Table S1.
as §1

hCB1 receptor [6] = target: T1, hCB1 receptor; settings: ref Wouters et al. [31], cited from earlier work
hCB1 receptor [7] = target: T1, hCB1 receptor; design: method as in Gamage et al. [40]; settings: cited from earlier work
[8] = intoxication case B (AB‐CHMINACA)

T1 sequence (P21554 whole entry): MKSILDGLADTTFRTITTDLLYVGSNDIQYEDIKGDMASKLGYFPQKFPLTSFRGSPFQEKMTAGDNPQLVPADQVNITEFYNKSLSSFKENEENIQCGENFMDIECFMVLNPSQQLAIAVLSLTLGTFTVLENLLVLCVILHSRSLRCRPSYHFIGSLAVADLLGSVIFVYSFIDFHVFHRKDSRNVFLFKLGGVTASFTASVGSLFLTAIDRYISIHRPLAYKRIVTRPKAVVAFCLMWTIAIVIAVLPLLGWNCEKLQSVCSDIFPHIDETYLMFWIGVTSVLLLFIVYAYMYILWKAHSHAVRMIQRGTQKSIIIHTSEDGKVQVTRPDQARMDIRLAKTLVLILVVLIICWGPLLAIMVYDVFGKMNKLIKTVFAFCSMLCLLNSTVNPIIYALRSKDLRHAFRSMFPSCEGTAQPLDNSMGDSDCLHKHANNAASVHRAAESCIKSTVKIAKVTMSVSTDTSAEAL

CNC(C)C(=O)c1cccc(C)c1 (stereo not shown) [3‐MMC]
Concentration in serum ([1]; intoxication case A (AB‐CHMINACA)): 320 ng/mL | Concentration in serum ([1]; intoxication case A (AB‐CHMINACA), listed as 3-MMC): ~3-MMC approximately 320 ng/mL

O=C(NC12CC3CC(CC(C3)C1)C2)c1nn(CCCCCF)c2ccccc12 [5F-AKB-48]
Concentration in serum [1, 8]: < 0.1 ng/mL

O=C(Oc1cccc2cccnc12)c1cn(CCCCCF)c2ccccc12 [5F‐PB‐22]
Ki (hCB1 receptor [2]): 0.0996 nM | EC50 (hCB1 receptor [3]): 2.73 nM | Emax (hCB1 receptor [3]; read-out: [35S]‐GTPγS assay Emax [%] (95% CI)): 124% | G total (risk score) ([4]; G1+G2+G3, higher value = greater toxicological risk): 9.9 | G2 ([4]; mean Poison Severity Score (PSS) of all intoxications with the SCRA): 1.9 | G3 ([4]; mean Toxicological Significance Score (TSS) of all intoxications with the SCRA): 2.7 | G1 ([4]; proportion in intoxication cases relative to prevalence in routine serum/blood and urine samples per quarter, 2013–2021, >1 over‐represented in intoxications): 5.3 | No. of intoxications ([5]; 139 intoxication samples of the prospective study): 13 | Percentage in % ([5]; proportion of 139 intoxications in which the substance was detected): 9.4% | Concentration in serum [1, 8]: ~1.5 ng/mL | EC50 (hCB1 receptor [6]; read-out: βarr2 assay EC50 [nM] (95% CI)): 0.32 nM | βarr2 assay Emax [%] (95% CI) (hCB1 receptor [6]; relative to CP‐55940): 980.2 ^d (888.2–1072) %

COC(=O)C(NC(=O)c1nn(Cc2ccc(F)cc2)c2ccccc12)C(C)C (stereo not shown) [FUB‐AMB]
EC50 (hCB1 receptor [7]; read-out: [35S]‐GTPγS assay EC50 [nM] (95% CI), ref Gamage et al. [40]): 0.543 nM | [35S]‐GTPγS assay Emax [%] (95% CI) (hCB1 receptor [7]; relative to CP‐55940, cell without footnote mark, EC50 of the same line from ref Gamage et al. [40]): 69.42 (62.6–76.2) %

CCCCCn1nc(C(=O)c2cccc3ccccc23)c2ccccc21 [THJ-018]
Concentration in serum [1, 8]: < 0.1 ng/mL

O=C(c1cccc2ccccc12)c1nn(CCCCCF)c2ccccc12 [THJ-2201]
Concentration in serum [1, 8]: < 0.1 ng/mL
